Test results taken from paper PMC5037430 (Scientific Reports, 2016).
pIC50: −log10 of the molar value. Read-outs that look alike come from different tables or passages of the source.

Biological target: T1, glycolate oxidase (GO); hydroxyacid oxidase 1 (HAO1) (Homo sapiens, UniProt Q9UJM8)
T1 construct: recombinant full-length human HAO1
T1 sequence (Q9UJM8 1-370): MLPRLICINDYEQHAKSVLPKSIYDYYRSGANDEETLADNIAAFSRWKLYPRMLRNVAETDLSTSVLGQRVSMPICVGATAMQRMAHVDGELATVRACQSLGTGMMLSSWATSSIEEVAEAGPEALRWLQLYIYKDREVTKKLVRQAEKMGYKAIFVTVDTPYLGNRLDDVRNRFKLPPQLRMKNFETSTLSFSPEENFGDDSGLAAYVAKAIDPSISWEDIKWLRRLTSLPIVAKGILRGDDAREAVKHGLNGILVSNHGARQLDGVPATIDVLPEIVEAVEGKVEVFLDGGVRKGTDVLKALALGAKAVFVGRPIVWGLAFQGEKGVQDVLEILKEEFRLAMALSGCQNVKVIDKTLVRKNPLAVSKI
Experiment: hydrogen peroxide-Amplex red GO enzymatic assay; partial inhibition, less than […] at […]
Format: biochemical

SMILES | pIC50 (read-out: IC50) | pIC50
CC[C@H](NC(=O)c1c(C)c(-c2ccccc2)nc2ccccc12)c1ccccc1 [SB 222200] | < 4.00 | –
CCCc1nc2c(C)cc(-c3nc4ccccc4n3C)cc2n1Cc1ccc(-c2ccccc2C(=O)O)cc1 [Telmisartan] | – | < 4.00
